In patent US4665074A, “6-(polyfluoroalkoxyphenyl) pyridazinones, their compositions, synthesis and use” (Byk Gulden Lomberg Chemische Fabrik GmbH, priority 1984, dated 1987):

Assays:
[1] = system: acetylcholine-induced bronchospasm; experiment: Protective action against acetylcholine-induced bronchospasm in conscious guinea pigs; assay type: in vivo, guinea pig; conditions: 100 μmol/kg p.o.; test 30 min after application; acetylcholine mist 0.06%
Description: Guinea pigs (250-350 g) in a closed Plexiglas cylinder (volume: 5 l) are exposed to a mist of acetylcholine (0.06% in 0.9% sodium chloride solution; Heyer Use 77 ultrasonic atomizer) twice at an interval of 20 minutes. The time from the start of atomization until there is onset of a marked struggle to breathe (in certain circumstances, a hypoxic convulsion in the lateral position) is measured and designated the latency perid. […] The test substance is administered orally by gavage (standard dose 100 μmol/kg, volume 1 ml of 4% strength methocel suspension in 0.9% strength sodium chloride solution/kg). After 30 minutes, the animals are again exposed to the mist of acetylcholine, and the latency periods are measured. A prolongation of the latency period to […] is regarded as a protective action.

[2] = system: electrically-stimulated left atrium of the rat; experiment: Positive inotropic action in vitro on electrically-stimulated left atrium; assay type: cell-based; conditions: for -lg(EC40pot.) left atrium / EC40: EC40pot. in mol/l, 40% increase in contraction force vs initial value, 31°; for (EC40pot.)theophylline /(EC40pot.)substance: activity on left atrium relative to theophylline; for EC40: Rattus norvegicus, read-out: -lg(EC40pot.) left atrium (converted)
Description: Testing the positive inotropic action of the compounds in vitro on the electrically-stimulated left atrium of the rat is effected as follows:
Isometric contractions (HSE force sensor K-30; Watanabe recorder, Linear Corder Mark 5) of isolated left atria of rats (.male., 250-300 g) in an organ bath (10 ml, Tyrode nutrient solution, 31°, gassing with carbogen, initial tension of the organs 0.25 g) with electric stimulation (HSE stimulator, 7 V, 3 ms, 2 Hz) are recorded. After an equilibration period of 30 minutes, a dose-dependent increase in the contraction force is brought about by administration of the test substance in concentrations which increase semilogarithmically and cumulatively (for example 1×10^-6 +2×10^-6 +7×10^-6 +2×10^-5etc. mol/l), a constant inotropic response being waited for after each individual dose of the test substance before the next higher concentration is administered. The particular increase in the contraction force is expressed as a % of the initial value before administration of the substance. The concentration of the test substance which potentiates the contraction force of the atrium by 40% compared with the initial value (EC40pot.mol/l), expressed by the negative logarithm of (EC40pot.mol/l): -1 g(EC40pot.), serves as a measure of the cardiotonic activity.
(§1) The measure used for the organ-selective activity is the ratio between (EC40pot.) left atrium and (EC50)trachea. As a measure of the activity, the ratios between (EC50)trachea values and (EC40pot.)left atrium values of theophylline and the tested compound are given.

[3] = system: isolated, spontaneously contracted chain of tracheal rings of the guinea pig; experiment: Bronchospasmolytic action in vitro on chain of tracheal rings (relaxation of spontaneous tonic contraction); assay type: cell-based; conditions: for -lg(EC50) trachea / EC50: EC50 in mol/l, 50% of maximum relaxation achieved by (-)isoprenaline 10^-6 mol/l, 37°; for (EC50)theophylline / (EC50)substance: activity on trachea relative to theophylline; for (EC40pot.) left atrium / (EC50)trachea: organ-selectivity ratio, rat left atrium vs guinea pig trachea; for EC50: Cavia porcellus, read-out: -lg(EC50) trachea (converted)
Description: To test the bronchospasmolytic action of the compounds in vitro on a chain of tracheal rings of the guinea pig, such tracheal rings are subjected to the following procedure:
Four parallel chains of tracheal rings (each consisting of 6 individual rings) of guinea pigs (.male. and .female., 430-600 g) in an organ bath [5 ml, Krebs-Henseleit solution with added phentolamine (10^-5 mol/l), 37°, initial tension of the organs 2 g, gassing with carbogen] develop a stable, spontaneous tonic contraction after about 20 to 30 minutes. […] Over a period of from 20 to 30 minutes, a complete dose/action curve of the test substance is thus obtained. The particular relaxation is expressed as a percentage fraction of the maximum relaxation achieved by administration of (-)isoprenaline (10^-6 mol/l).
as §1

Row | Compound | (EC50)theophylline / (EC50)substance [3] | -lg(EC50) trachea ([3]; listed as 2) | (EC50)theophylline / (EC50)substance ([3]; listed as 2) | EC50 [3] [µM] | Tripling of the latency period in N of 10 animals [1] | -lg(EC40pot.) left atrium [2] | (EC40pot.)theophylline /(EC40pot.)substance [2] | -lg(EC50) trachea [3] | (EC40pot.) left atrium / (EC50)trachea [3] | -lg(EC40pot.) left atrium ([2]; listed as 2) | (EC40pot.)theophylline /(EC40pot.)substance ([2]; listed as 2) | (EC40pot.) left atrium / (EC50)trachea ([3]; listed as 2) | EC40 [2] [µM]
1 | 6-(4-difluoromethoxy-3-methoxyphenyl)-3[2H]pyridazinone [Serial No. 5] | 85 | – | – | – | 7 of 10 animals | 5.76 | 240 | 5.80 | 1.1 | – | – | – | –
2 | O=c1ccc(-c2ccc(OC(F)(F)F)cc2)n[nH]1 [Serial No. 1, 6-(4-trifluoromethoxyphenyl)-3[2H]pyridazinone] | 5.4 | 5.11 | 17.4 | – | – | 4.0 | 4.2 | 4.60 | 4.0 | 4.66 | 19 | 2.8 | –
3 | O=c1ccc(-c2cccc(OC(F)(F)C(F)F)c2)n[nH]1 [Serial No. 2, 6-[3-(1,1,2,2-tetrafluoroethoxy)phenyl]-3[2H]pyridazinone] | – | – | – | – | 8 of 10 animals | – | – | – | – | – | – | – | –
4 | Cn1c(=O)c2[nH]cnc2n(C)c1=O [Theophylline, theophylline, reference compound] | – | – | – | 135 | 3 of 10 animals | – | – | – | 3.1 | – | – | – | 417
5 | COc1cc(-c2ccc(=O)[nH]n2)ccc1OC(F)F [compound 5] | 110 | – | – | 1.23 | 9 of 10 animals | – | 469 | – | 0.7 | – | – | – | 0.871

More lines, main results first:

Row | (EC50)theophylline / (EC50)substance [3] | -lg(EC50) trachea ([3]; listed as 2) | (EC50)theophylline / (EC50)substance ([3]; listed as 2) | EC50 [3] [µM] | Compound | Tripling of the latency period in N of 10 animals [1] | -lg(EC40pot.) left atrium [2] | (EC40pot.)theophylline /(EC40pot.)substance [2] | -lg(EC50) trachea [3] | (EC40pot.) left atrium / (EC50)trachea [3] | -lg(EC40pot.) left atrium ([2]; listed as 2) | (EC40pot.)theophylline /(EC40pot.)substance ([2]; listed as 2) | (EC40pot.) left atrium / (EC50)trachea ([3]; listed as 2) | EC40 [2] [µM]
6 | 13.2 | – | – | 9.12 | O=c1ccc(-c2ccc(OC(F)(F)C(F)F)cc2)n[nH]1 [Serial No. 3, 6-[4-(1,1,2,2-tetrafluoroethoxy)phenyl]-3[2H]pyridazinone] | – | – | 6.8 | – | 6.8 | – | – | – | 61.7
7 | 11.2 | – | – | 12 | O=c1ccc(-c2ccc(OC(F)F)cc2)n[nH]1 [compound 6] | 8 of 10 animals | – | 12.9 | – | 2.7 | – | – | – | 32.4
8 | 9.3 | – | – | 14.5 | O=c1ccc(-c2cccc(OC(F)F)c2)n[nH]1 [compound 7] | 9 of 10 animals | – | – | – | > 6.9 | – | – | – | > 100
